In patent US4792563A, “Insecticidal ethers” (Imperial Chemical Industries PLC, priority 1986, dated 1988):

Legend:
Type in all cases: in vivo
[1] = system: Tetranychus urticae (spider mites - adult); assay: insecticidal mortality test, contact, French bean leaf; conditions: 72 h, 3 days, read-out: grading of mortality, TU
Protocol: (§1) The activity of the Product was determined using variety of insect pests. The Product was used in the form of liquid preparations containing 500 , 100 or 10 parts per million (ppm) by weight of the Product. The preparations were made by dissolving the Product in acetone and diluting the solutions with water containing b 0.01% by weight of a wetting agent sold under the trade name "LISSAPOL" NX until the liquid preparations contained the required concentration of the Product. "Lissapol" is a Registered Trade Mark.
(§2) The test procedure adopted with regard to each pest was basically the same and comprised supporting a number of the pests on a medium which was usually a host plant or a foodstuff on which the pests feed, and treating either or both the pests and the medium with the preparations. The mortality of the pests was then assessed at peroods usually varying from one to three days after the treatment.
(§3) The results of the tests are given in Table IV for each of the Products, at the rate in parts per million given in the second column, as a grading of mortality designated as A, B or C wherein A indicates 80-100% mortality or knockdown, B indicates 50-79% mortality or knockdown and C indicates less than 50% mortality or knockdown.
(§4) In Table IV the pest organism used is designated by a letter code and the pest species, the support medium or food, and the type and duration of test is given in Table III.

[2] = system: Musca domestica (houseflies - adults); assay: insecticidal mortality test, contact, cotton wool/sugar; conditions: 24 h, 1 day, read-out: grading of mortality, MD
Protocol: as §1, §2, §3, §4

[3] = system: Heliothis virescens (tobacco budworm - larvae); assay: whole plant or invertebrate; conditions: in Gossypium hirsutum, 72 h, read-out: grading of mortality, HV
Protocol: as §1, §2, §3, §4
(tobacco budworm - larvae)

[4] = system: Niloparvata lugens (brown plant hopper - nymphs); assay: insecticidal mortality test, contact, rice plant; conditions: 72 h, 3 days, read-out: grading of mortality, NL
Protocol: as §1, §2
as §3, with “knockdown. […]” for “knockdown.”

[5] = system: Blattella germanica (cockroach nymphs); assay: insecticidal mortality test, residual, plastic pot; conditions: 72 h, 3 days, read-out: grading of mortality, BG
Protocol: as §1, §2, §3, §4

[6] = system: Diabrotica balteata (rootworm larvae); assay: insecticidal mortality test, residual, filter paper/maize seed; conditions: 72 h, 3 days, read-out: grading of mortality, DB
Protocol: as §1, §2, §3, §4

[7] = system: Myzus persicae (aphids); assay: insecticidal mortality test, contact, Chinese cabbage leaf; conditions: 72 h, 3 days, read-out: grading of mortality, MP
Protocol: as §1, §2, §3, §4

[8] = system: Musca domestica (houseflies - adults); assay: knockdown test, cotton wool/sugar; conditions: 4 hours, read-out: grading of knockdown, MD/KD
Protocol: as §1, §2
In the case of the species Musca domestica (housefly), additional tests to determine the knockdown effect of the compounds were performed.
as §3, §4

[9] = system: Spodoptera exigua (lesser army worm - larvae); assay: insecticidal mortality test, residual, cotton leaf; conditions: 72 h, 3 days, read-out: grading of mortality, SP
Protocol: as §1, §2, §3, §4
(lesser army worm - larvae)

[10] = system: Nephotettix cincticeps (green leaf hopper - nymphs); assay: insecticidal mortality test, contact, rice plant; conditions: 72 h, 3 days, read-out: grading of mortality, NC
Protocol: as §1, §2, §3, §4
NC Nephotettix cincticeps

Row | SMILES | mortality at 500 ppm [1] | mortality at 500 ppm [2] | mortality at 500 ppm [3] | mortality at 500 ppm [4] | mortality at 500 ppm [5] | mortality at 500 ppm [6] | mortality at 500 ppm [7] | pest or weed control at 500 ppm [8] | mortality at 500 ppm [9] | mortality at 500 ppm [10]
1 | CC(C)(COCc1ccc(F)c(Oc2ccccc2)c1)C(F)F [Compound 1, 1,1-difluoro-2,2-dimethyl-3-(4-fluoro-3-phenoxybenzyloxy)propane] | < 50% | 80 to 100% | 80 to 100% | 80 to 100% | 80 to 100% | 80 to 100% | < 50% | 80 to 100% | 80 to 100% | 
2 | Fc1ccc(COCC2(C(F)F)CCCC2)cc1Oc1ccccc1 [Compound 21, 1-Difluoromethyl-l-(4-fluoro-3-phenoxybenzyloxymethyl)cyclopentane] | < 50% | < 50% | 50 to 79% |  |  | 80 to 100% | < 50% | < 50% | < 50% | 80 to 100%
3 | CC(C)(COCc1cccc(Oc2ccccc2)c1)C(F)F [Compound 2, 1,1-Difluoro-2,2-dimethyl-3-(3-phenoxybenzyloxy)propane] | < 50% | 80 to 100% | < 50% |  | 80 to 100% | 80 to 100% | < 50% | 80 to 100% | < 50% | 80 to 100%
4 | CCC(C)(COCc1cccc(Oc2ccccc2)c1)C(F)F (racemic) [Compound 3, (RS)-1,1-Difluoro-2-ethyl-2-methyl-3(3-phenoxybenzyloxy)propane] | < 50% | 50 to 79% | < 50% |  | < 50% | 80 to 100% | < 50% | 50 to 79% | 80 to 100% | < 50%
5 | CC(C)(CF)COCc1cccc(Oc2ccccc2)c1 [Compound 8, 1-fluoro-2,2-dimethyl-3-(3-phenoxybenzyloxy)propane] | < 50% | 50 to 79% | 50 to 79% |  | < 50% | 80 to 100% | < 50% | < 50% | 80 to 100% | 80 to 100%
6 | CC(C)(COCc1ccc(F)c(Cc2ccccc2)c1)C(F)F [Compound 4, 1,1-Difluoro-2,2-dimethyl-3-(4-fluoro-3-benzylbenzyloxy)propane] | < 50% | 80 to 100% | < 50% |  | 50 to 79% | 80 to 100% | < 50% | < 50% | 50 to 79% | 
7 | CC(C)(COCc1cccc(Oc2ccccc2)n1)C(F)F [Compound 5, 1,1-Difluoro-2,2-dimethyl-3-[(6-phenoxypyrid-2-yl)methyloxy]propane] | 80 to 100% | 80 to 100% | < 50% | 80 to 100% | 80 to 100% | 80 to 100% | 50 to 79% | 80 to 100% | 80 to 100% | 
8 | CC(C)(CF)COCc1ccc(F)c(Oc2ccccc2)c1 [Compound 7, 1-Fluoro-2,2-dimethyl-3-(4-fluoro-3-phenoxybenzyloxy)propane] | < 50% | 80 to 100% | 80 to 100% |  | 80 to 100% | 80 to 100% | < 50% | 80 to 100% | 80 to 100% | 80 to 100%
9 | CC(C)(COCc1ccc(F)c(Nc2ccccc2)c1)C(F)F [Compound 6, 1,1-Difluoro-2,2-dimethyl-3-(3-phenylamino-4-fluorobenzyloxy)propane] | 80 to 100% | < 50% | 80 to 100% |  |  | 80 to 100% | 80 to 100% | 50 to 79% | 80 to 100% | 80 to 100%
